Assay results from US20100227859A1, “TRICYCLIC COMPOUNDS AS MATRIX METALLOPROTEINASE INHIBITORS” (priority 2007, published 2010).
pIC50: −log10 of the molar value.

The compounds below were run against purified human MMP-12 enzyme (Homo sapiens, UniProt P39900) (assay: MMP-12 FRET assay). Conditions: substrate 20 μM, room temperature.
Format: biochemical
Procedure: Compounds according to the present teachings were tested in an MMP-12 FRET assay as follows. To each well of black polystyrene 96-well plate was added assay buffer (50 mM HEPES (pH 7.4), 100 mM NaCl, 5 mM CaCl2 and 0.005% Brij-35 (Polyoxyethyleneglycol dodecyl ether, Pierce cat#20150), purified human MMP-12 enzyme, and varied concentrations of test compounds (prepared by serial dilution of a stock solution in 100% DMSO). The plates were incubated at room temperature for 30 minutes. The enzymatic reactions were initiated by addition of a substrate, MCA-Pro-Leu-Gly-Leu-Dpa(DNP)-Ala-Arg, containing a fluorescent group (7-methoxycoumarin, MCA) and a 2,4-dinitrophenyl group (DNP), to a final concentration of 20 μM. The final DMSO concentration in the assay was 10%. The reaction was monitored for 30 minutes at room temperature and the initial rate of the cleavage reaction was determined using a fluorescence plate reader (λex: 325 nm, λem: 395 nm). Plots of the inhibitor concentration vs. the initial cleavage rate were fit to the following equation: y=Vmax*(1−(x^n/(K^n+x^n))), whereby x=inhibitor concentration, y=initial rate, Vmax=initial rate in the absence of inhibitor, n=slope factor, and K=IC50 for the inhibition curve.

Sequence of purified human MMP-12 enzyme (P39900 106-470): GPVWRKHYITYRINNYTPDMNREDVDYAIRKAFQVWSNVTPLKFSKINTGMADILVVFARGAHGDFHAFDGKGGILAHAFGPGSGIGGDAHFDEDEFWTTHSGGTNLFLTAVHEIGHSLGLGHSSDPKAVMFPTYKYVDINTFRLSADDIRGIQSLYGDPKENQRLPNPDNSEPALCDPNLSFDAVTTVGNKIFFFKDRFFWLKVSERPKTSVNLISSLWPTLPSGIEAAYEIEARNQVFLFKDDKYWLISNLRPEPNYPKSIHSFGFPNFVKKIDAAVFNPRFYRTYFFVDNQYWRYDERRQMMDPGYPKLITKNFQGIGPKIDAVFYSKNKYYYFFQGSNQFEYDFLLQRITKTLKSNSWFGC

pIC50	Compound
6.93	CC(C)[C@H](NS(=O)(=O)c1ccc2c(c1)oc1ccc(-c3occc3CN(C)C)cc12)C(=O)O [Compound 48, (S)-2-(8-(3-((dimethylamino)methyl)furan-2-yl)dibenzo[b,d]furan-3-sulfonamido)-3-methylbutanoic acid]
> 8.82	CC(C)[C@H](NS(=O)(=O)c1ccc2c(c1)oc1ccc(-c3cc(Cl)oc3Cl)cc12)C(=O)O [Compound 95, (S)-2-(8-(2,5-dichlorofuran-3-yl)dibenzo[b,d]furan-3-sulfonamido)-3-methylbutanoic acid]
8.31	CC(C)[C@@H](NS(=O)(=O)c1ccc2oc3cc(-c4cc5ccccc5s4)ccc3c2c1)C(=O)O [Compound 100, (R)-2-(7-(benzo[b]thiophen-2-yl)dibenzo[b,d]furan-2-sulfonamido)-3-methylbutanoic acid]
7.89	CC(C)[C@@H](NS(=O)(=O)c1ccc2oc3cc(-c4ccoc4)ccc3c2c1)C(=O)O [Compound 96, (R)-2-(7-(furan-3-yl)dibenzo[b,d]furan-2-sulfonamido)-3-methylbutanoic acid]
> 8.82	CC(C)[C@H](NS(=O)(=O)c1ccc2c(c1)oc1ccc(-c3ccc(C(N)=O)s3)cc12)C(=O)O [Compound 111, (S)-2-(8-(5-carbamoylthiophen-2-yl)dibenzo[b,d]furan-3-sulfonamido)-3-methylbutanoic acid]
> 8.82	CC(C)[C@H](NS(=O)(=O)c1ccc2c(c1)sc1cc(-c3ccc(Cl)o3)ccc12)C(=O)O [Compound 182, (S)-2-(7-(5-chlorofuran-2-yl)dibenzo[b,d]thiophene-3-sulfonamido)-3-methylbutanoic acid]
> 8.82	CC(C)[C@H](NS(=O)(=O)c1ccc2c(c1)oc1ccc(-c3ncc(Cl)s3)cc12)C(=O)O [Compound 224, (S)-2-(8-(5-chlorothiazol-2-yl)dibenzo[b,d]furan-3-sulfonamido)-3-methylbutanoic acid]
9.22	CC(C)[C@@H](NS(=O)(=O)c1ccc2oc3cc(-c4cccs4)ccc3c2c1)C(=O)O [Compound 118, (R)-3-methyl-2-(7-(thiophen-2-yl)dibenzo[b,d]furan-2-sulfonamido)butanoic acid]
7.96	CC(C)[C@@H](NS(=O)(=O)c1ccc2c(c1)oc1ccc(-c3ccc4c(c3)C(C)(C)OC(=O)N4)cc12)C(=O)O [Compound 1, (R)-2-(8-(4,4-dimethyl-2-oxo-2,4-dihydro-1H-benzo[d][1,3]oxazin-6-yl)dibenzo[b,d]furan-3-sulfonamido)-3-methylbutanoic acid]
6.89	CC(C)(C)c1nc(-c2ccc3oc4cc(S(=O)(=O)N[C@H](Cc5c[nH]c6ccccc56)C(=O)O)ccc4c3c2)no1 [Compound 256, (R)-2-(8-(5-tert-butyl-1,2,4-oxadiazol-3-yl)dibenzo[b,d]furan-3-sulfonamido)-3-(1H-indol-3-yl)propanoic acid]
8.43	CC(C)[C@H](NS(=O)(=O)c1ccc2c(c1)oc1ccc(-c3ncc(Cn4cccn4)s3)cc12)C(=O)O [Compound 214, (S)-2-(8-(5-((1H-pyrazol-1-yl)methyl)thiazol-2-yl)dibenzo[b,d]furan-3-sulfonamido)-3-methylbutanoic acid]
8.08	CC(C)[C@H](NS(=O)(=O)c1ccc2c(c1)sc1ccc(-c3ccncc3)cc12)C(=O)O [Compound 56, (S)-3-methyl-2-(8-(pyridin-4-yl)dibenzo[b,d]thiophene-3-sulfonamido)butanoic acid]
7.89	(S)-3-methyl-2-(8-(5-((methylamino)methyl)furan-2-yl)dibenzo[b,d]furan-3-sulfonamido)butanoic acid [Compound 68]
8.54	CC(=O)c1ccc(-c2ccc3sc4cc(S(=O)(=O)N[C@H](C(=O)O)C(C)C)ccc4c3c2)s1 [Compound 47, (S)-2-(8-(5-acetylthiophen-2-yl)dibenzo[b,d]thiophene-3-sulfonamido)-3-methylbutanoic acid]
7.82	CCC(C)Cn1cc(-c2ccc3oc4cc(S(=O)(=O)N[C@H](C(=O)O)C(C)C)ccc4c3c2)cn1 (stereo partly drawn) [Compound 157, (2S)-3-methyl-2-(8-(1-(2-methylbutyl)-1H-pyrazol-4-yl)dibenzo[b,d]furan-3-sulfonamido)butanoic acid]
> 8.82	COc1ccc(-c2ccc3oc4cc(S(=O)(=O)N[C@H](C(=O)O)C(C)C)ccc4c3c2)cn1 [Compound 10, (S)-2-(8-(6-methoxypyridin-3-yl)dibenzo[b,d]furan-3-sulfonamido)-3-methylbutanoic acid]
8.55	CC(C)c1nc(-c2ccc3c(c2)oc2ccc(S(=O)(=O)N[C@@H](C(=O)O)C(C)C)cc23)no1 [Compound 138, (R)-2-(7-(5-isopropyl-1,2,4-oxadiazol-3-yl)dibenzo[b,d]furan-2-sulfonamido)-3-methylbutanoic acid]
> 8.82	CC(C)[C@H](NS(=O)(=O)c1ccc2c(c1)oc1ccc(-c3ccc(F)s3)cc12)C(=O)O [Compound 124, (S)-2-(8-(5-fluorothiophen-2-yl)dibenzo[b,d]furan-3-sulfonamido)-3-methylbutanoic acid]
8.41	CCCn1cc(-c2ccc3c(c2)oc2ccc(S(=O)(=O)N[C@@H](C(=O)O)C(C)C)cc23)cn1 [Compound 171, (R)-3-methyl-2-(7-(1-propyl-1H-pyrazol-4-yl)dibenzo[b,d]furan-2-sulfonamido)butanoic acid]
7.82	CC(C)[C@@H](NS(=O)(=O)c1ccc2oc3cc(-c4nc5c(F)cccc5s4)ccc3c2c1)C(=O)O [Compound 299, (R)-2-(7-(4-fluorobenzo[d]thiazol-2-yl)dibenzo[b,d]furan-2-sulfonamido)-3-methylbutanoic acid]
8.40	CC(C)CCn1cc(-c2ccc3oc4cc(S(=O)(=O)N[C@H](C(=O)O)C(C)C)ccc4c3c2)cn1 [Compound 20, (S)-2-(8-(1-isopentyl-1H-pyrazol-4-yl)dibenzo[b,d]furan-3-sulfonamido)-3-methylbutanoic acid]
7.92	CC(C)C[C@H](NS(=O)(=O)c1ccc2c(c1)oc1ccc(-c3noc(C(C)(C)C)n3)cc12)C(=O)O [Compound 252, (S)-2-(8-(5-tert-butyl-1,2,4-oxadiazol-3-yl)dibenzo[b,d]furan-3-sulfonamido)-4-methylpentanoic acid]
7.82	COCC#Cc1ccc2c(c1)sc1cc(S(=O)(=O)N[C@@H](C(=O)O)C(C)C)ccc12 [Compound 90, (R)-2-(7-(3-methoxyprop-1-ynyl)dibenzo[b,d]thiophene-3-sulfonamido)-3-methylbutanoic acid]
> 8.82	CC(C)[C@H](NS(=O)(=O)c1ccc2c(c1)oc1ccc(-c3ccc(Cl)s3)cc12)C(=O)O [Compound 74, (S)-2-(8-(5-chlorothiophen-2-yl)dibenzo[b,d]furan-3-sulfonamido)-3-methylbutanoic acid]
8.21	CCCc1ccc(-c2ccc3c(c2)oc2ccc(S(=O)(=O)N[C@H](C(=O)O)C(C)C)cc23)s1 [Compound 246, (S)-3-methyl-2-(7-(5-propylthiophen-2-yl)dibenzo[b,d]furan-2-sulfonamido)butanoic acid]
6.68	CC(C)[C@H](NS(=O)(=O)c1ccc2c(c1)oc1ccc(C(=O)O)cc12)C(=O)O [Compound 273, (S)-7-(N-(1-carboxy-2-methylpropyl)sulfamoyl)dibenzo[b,d]furan-2-carboxylic acid]
